# Measurements as given in patent publication US20090054346A1, “ELASTIN PRODUCTION-ENHANCING AGENTS” (Rohto Pharmaceutical Co., Ltd., priority 2006, published 2009).
# Peptide text beside a SMILES is read from it.
# Test system: Normal human skin-derived fibroblasts (CRL-1836)
# Assay: Microscopic observation of fibroblasts after 72 hours of culture (cell count, morphology)
# Assay type: cell-based
# Settings: 1000 μg/ml peptide
# Method: Normal human skin-derived fibroblasts (CRL-1836; ATCC) were cultured in 60-mm dishes. More specifically, the cells were plated in dishes at a density of 2500 cells/cm^2, and cultured until subconfluent at 37° C. under 5% carbon dioxide gas and 95% air for 6 days. 3 ml of Dulbecco's Modified Eagle Medium (DMEM) supplemented with […] fetal bovine serum (FBS) was used in the culture. Then, the culture medium was changed to the same medium without FBS (namely, serum-free medium), and the culture was continued for 1 day. Next, the culture medium was changed to 3 ml of serum-free medium supplemented with 1000 μg/ml of the LEHA peptide prepared in Example 1, and the cells were cultured for 72 hours. Meanwhile, the culture in which the medium was changed to 3 ml of serum-free culture medium without the LEHA peptide was used as a control.
# After 72 hours of culture, the cells in the dishes containing the LEHA peptide and the control dishes were observed under a microscope.
smiles,measurement,value
"CC(C)C[C@H](N)C(=O)N[C@@H](CCC(=O)O)C(=O)N[C@@H](Cc1c[nH]cn1)C(=O)N[C@@H](C)C(=O)O [LEHA peptide, Leu-Glu-His-Ala] (H-LEHA-OH)",cell counts versus control dishes,not significantly different
same,morphological abnormality of the cells,no morphological abnormality was observed
